Active and inactive are the calls of the source. The rule behind the calls is not given here.
Assays:
[1] = molecular target: T1, Signal transducer and activator of transcription 1 (Rattus norvegicus) (UniProt Q6P6Q7); test: Inhibition of INFgamma-induced STAT1 activation in rat INS-1E cells assessed as reduction of STAT1-DNA binding activity at 10 uM preincubated for 30 mins followed by cytokine challenge measured after 60 mins by electrophoretic mobility shift assay; format: cell-based
T1 sequence (whole entry): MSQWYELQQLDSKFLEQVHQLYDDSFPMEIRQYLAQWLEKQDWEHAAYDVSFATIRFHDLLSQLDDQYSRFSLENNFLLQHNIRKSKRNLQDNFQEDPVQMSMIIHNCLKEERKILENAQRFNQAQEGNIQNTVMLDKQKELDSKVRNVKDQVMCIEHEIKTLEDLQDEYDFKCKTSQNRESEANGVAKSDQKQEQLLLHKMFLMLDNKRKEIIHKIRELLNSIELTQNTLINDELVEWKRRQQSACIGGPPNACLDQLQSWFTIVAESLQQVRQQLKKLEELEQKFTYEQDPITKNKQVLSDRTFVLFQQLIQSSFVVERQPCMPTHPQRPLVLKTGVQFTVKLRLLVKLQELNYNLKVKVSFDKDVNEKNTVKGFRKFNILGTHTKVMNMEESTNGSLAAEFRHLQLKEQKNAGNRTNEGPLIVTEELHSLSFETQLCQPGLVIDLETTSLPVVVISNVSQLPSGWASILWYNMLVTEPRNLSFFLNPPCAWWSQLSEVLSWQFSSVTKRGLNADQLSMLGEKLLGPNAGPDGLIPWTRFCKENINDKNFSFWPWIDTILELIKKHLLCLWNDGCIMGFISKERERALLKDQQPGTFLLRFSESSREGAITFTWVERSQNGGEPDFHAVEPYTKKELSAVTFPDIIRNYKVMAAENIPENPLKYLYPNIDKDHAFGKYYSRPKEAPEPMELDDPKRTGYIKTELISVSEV

[2] = molecular target: T1, Signal transducer and activator of transcription 1 (Rattus norvegicus); test: Inhibition of INFgamma-induced STAT1 activation in rat INS-1E cells assessed as reduction of STAT1-DNA binding activity at 25 uM preincubated for 30 mins followed by cytokine challenge measured after 60 mins by electrophoretic mobility shift assay; format: cell-based
[3] = molecular target: T2, Signal transducer and activator of transcription 1-alpha/beta (Homo sapiens) (UniProt P42224); test: Inhibition of STAT1 in human […] cells assessed as suppression of INFgamma-induced SOCS-1 expression at 25 to 40 uM by Northern blotting technique; format: cell-based
T2 sequence (whole entry): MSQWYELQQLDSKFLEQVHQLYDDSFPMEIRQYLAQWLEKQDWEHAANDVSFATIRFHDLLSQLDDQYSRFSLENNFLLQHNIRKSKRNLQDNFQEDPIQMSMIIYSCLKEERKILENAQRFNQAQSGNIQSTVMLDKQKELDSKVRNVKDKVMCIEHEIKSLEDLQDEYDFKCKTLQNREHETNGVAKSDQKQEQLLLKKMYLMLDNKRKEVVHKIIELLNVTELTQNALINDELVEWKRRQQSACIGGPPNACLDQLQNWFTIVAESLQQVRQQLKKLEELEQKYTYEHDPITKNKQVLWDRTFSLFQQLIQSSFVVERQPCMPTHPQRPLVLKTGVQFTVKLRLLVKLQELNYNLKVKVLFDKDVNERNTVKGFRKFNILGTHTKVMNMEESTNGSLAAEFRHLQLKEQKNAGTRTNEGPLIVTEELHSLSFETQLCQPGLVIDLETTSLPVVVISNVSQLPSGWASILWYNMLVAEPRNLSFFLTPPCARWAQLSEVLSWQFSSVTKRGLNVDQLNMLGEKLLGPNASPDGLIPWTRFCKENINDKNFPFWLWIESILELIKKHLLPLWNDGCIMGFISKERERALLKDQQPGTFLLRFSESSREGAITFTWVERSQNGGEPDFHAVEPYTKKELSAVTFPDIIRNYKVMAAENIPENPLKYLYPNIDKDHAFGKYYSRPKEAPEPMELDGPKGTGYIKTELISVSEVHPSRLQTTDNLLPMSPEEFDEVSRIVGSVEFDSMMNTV

[4] = molecular target: T2, Signal transducer and activator of transcription 1-alpha/beta (Homo sapiens); test: Inhibition of INFgamma-induced STAT1 activation in human […] cells assessed as reduction of STAT1-DNA binding activity at 50 uM preincubated for 30 mins followed by cytokine challenge measured after 60 mins by electrophoretic mobility shift assay; format: cell-based
[5] = molecular target: T2, Signal transducer and activator of transcription 1-alpha/beta (Homo sapiens); test: Inhibition of INFgamma-induced STAT1 activation in human […] cells assessed as reduction of STAT1-DNA binding activity preincubated for 30 mins followed by cytokine challenge measured after 60 mins by electrophoretic mobility shift assay; format: cell-based
[6] = molecular target: T3, Signal transducer and activator of transcription 1-alpha/beta (Homo sapiens, UniProt P42224); test: Binding affinity to STAT1 (unknown origin) by surface plasmon resonance assay
T3 sequence (P42224 whole entry): T2 sequence (whole entry)

INS-1E = test: Inhibition of TNFalpha-induced NFkappaB activation in rat INS-1E cells assessed as reduction of NFkappaB-DNA binding activity at 25 uM preincubated for 30 mins followed by cytokine challenge measured after 60 mins by electrophoretic mobility shift assay; format: cell-based
MDA-MB-231 [7] = test: Inhibition of TNFalpha-induced NFkappaB activation in human MDA-MB-231 cells assessed as reduction of NFkappaB-DNA binding activity at 50 uM preincubated for 30 mins followed by cytokine challenge measured after 60 mins by electrophoretic mobility shift assay; format: cell-based
MDA-MB-231 [8] = test: Inhibition of TNFalpha-induced NFkappaB activation in human MDA-MB-231 cells assessed as reduction of NFkappaB-DNA binding activity preincubated for 30 mins followed by cytokine challenge measured after 60 mins by electrophoretic mobility shift assay; format: cell-based
[9] = molecular target: T2, Signal transducer and activator of transcription 1-alpha/beta (Homo sapiens); test: Inhibition of INFgamma-induced STAT1 activation in human […] cells assessed as reduction of STAT1-DNA binding activity at 25 uM preincubated for 30 mins followed by cytokine challenge measured after 60 mins by electrophoretic mobility shift assay; format: cell-based

Row | inhibition [1] | inhibition [2] | inhibition [3] | inhibition [4] | inhibition [5] | Kd [6] [µM] | inhibition [9] | Compound | inhibition (INS-1E) | inhibition (MDA-MB-231 [7]) | inhibition (MDA-MB-231 [8])
1 | Active | Active | Active | Active | Dose-dependent effect | 20.6 | – | CC(C)=CCC[C@@]1(C)[C@H](CC=C(C)C)C[C@]2(CC=C(C)C)C(=O)[C@@]1(CC=C(C)C)C(=O)C(C(=O)c1ccc(O)c(O)c1)=C2O [GUTTIFERONE K] | – | – | –
2 | – | inactive | – | Active | Dose-dependent effect | 4.67 | – | CC(C)=CCC/C(C)=C/C[C@@]12C[C@H](CC=C(C)C)C(C)(C)[C@@](CC=C(C)C)(C(=O)C(C(=O)c3ccc(O)c(O)c3)=C1O)C2=O | inactive | inactive | –
3 | – | Active | – | – | Dose-dependent effect | 16.9 | Active | C=C(C)[C@@H](CC=C(C)C)C[C@@]12C[C@@H](CC=C(C)C)C(C)(C)[C@@](CC=C(C)C)(C(=O)C(C(=O)c3ccc(O)c(O)c3)=C1O)C2=O [GARCINOL] | Active | Active | Dose-dependent effect

Row | Compound | inhibition [1] | inhibition [2] | inhibition [3] | inhibition [4] | inhibition [5] | Kd [6] [µM] | inhibition [9] | inhibition (INS-1E) | inhibition (MDA-MB-231 [7]) | inhibition (MDA-MB-231 [8])
4 | O=C(O[C@@H]1Cc2c(O)cc(O)cc2O[C@@H]1c1cc(O)c(O)c(O)c1)c1cc(O)c(O)c(O)c1 [EPIGALOCATECHIN GALLATE] | – | – | – | – | – | 0.7 | – | – | – | –

Reference: ChEMBL document CHEMBL3120108, “Direct interaction of garcinol and related polyisoprenylated benzophenones of Garcinia cambogia fruits with the transcription factor STAT-1 as a likely mechanism of their inhibitory effect on cytokine signaling pathways” (J Nat Prod, 2014)
